Measured values from PMC11284788, “NN1213 – A Potent, Long-Acting, and Selective Analog of Human Amylin” (Journal of Medicinal Chemistry, 2024).
Read-outs that look alike come from different tables or passages of the source. Numbered stars: 1 amine (or outer) side, 2 acyl side, 3 side chain; on linkers, the order of the positions; unused ones are H or OH. Bridge positions count the residues as written; N and C are the ends. Peptide text beside a SMILES is read from it. * marks the point of attachment. C20 diacid = O=C(O)CCCCCCCCCCCCCCCCCCC(=O)*; γGlu = O=C(O)[C@H](CCC(=O)[*:2])N[*:1]

What was measured:
rat CTR = target: T1, rat CTR (Rattus norvegicus, UniProt P32214); assay: cAMP FlashPlate assay, rat CTR; format: cell-based; details: cAMP (rat receptor assay)
T1 construct: expressed in transfected cells; host or cells: BHK tk-ts 13, transient (FuGENE 6)
T1 sequence (P32214 25-479 isoform P32214-2 limits assumed): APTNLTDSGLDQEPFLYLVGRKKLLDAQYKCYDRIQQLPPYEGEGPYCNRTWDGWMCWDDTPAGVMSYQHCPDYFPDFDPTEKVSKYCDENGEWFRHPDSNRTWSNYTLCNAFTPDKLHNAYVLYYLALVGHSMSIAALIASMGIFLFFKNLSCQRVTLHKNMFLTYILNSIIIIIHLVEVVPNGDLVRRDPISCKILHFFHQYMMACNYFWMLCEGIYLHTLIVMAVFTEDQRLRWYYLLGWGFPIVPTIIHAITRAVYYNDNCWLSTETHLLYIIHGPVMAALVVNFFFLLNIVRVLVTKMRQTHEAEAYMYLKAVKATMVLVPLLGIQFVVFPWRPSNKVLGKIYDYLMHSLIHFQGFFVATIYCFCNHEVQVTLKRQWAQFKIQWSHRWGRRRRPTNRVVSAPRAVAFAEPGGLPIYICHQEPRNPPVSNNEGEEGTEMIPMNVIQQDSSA

hCTR = target: T2, hCTR (Homo sapiens, UniProt P30988); assay: scintillation proximity binding assay, hCTR membranes; design: expressed in transfected cells; host or cells: BHK tk-ts 13, transient (FuGENE 6); membranes for the SPA, whole cells for the species-specific assays
T2 sequence (P30988 25-474): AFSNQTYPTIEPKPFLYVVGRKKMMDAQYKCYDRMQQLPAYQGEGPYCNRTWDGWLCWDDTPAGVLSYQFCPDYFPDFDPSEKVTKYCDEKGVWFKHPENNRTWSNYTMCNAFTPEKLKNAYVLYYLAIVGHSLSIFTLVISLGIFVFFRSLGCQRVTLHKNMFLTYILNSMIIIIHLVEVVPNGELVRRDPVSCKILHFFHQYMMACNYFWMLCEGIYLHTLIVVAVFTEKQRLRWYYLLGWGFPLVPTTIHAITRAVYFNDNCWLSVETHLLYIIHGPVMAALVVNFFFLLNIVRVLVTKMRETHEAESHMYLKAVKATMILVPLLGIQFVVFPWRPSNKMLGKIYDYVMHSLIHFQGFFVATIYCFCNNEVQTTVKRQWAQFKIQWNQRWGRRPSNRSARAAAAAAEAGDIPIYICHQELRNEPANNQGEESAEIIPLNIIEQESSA
Method: (§1) The apparent binding affinities were determined using a scintillation proximity assay with beads from PerkinElmer and cell membranes containing the AMY3R or CTRs. […] Membranes were harvested and membranes were prepared and kept at −80 °C until use. The assay was performed in a 384-well Optiplate (PerkinElmer). Membranes were mixed with scintillation proximity assay beads in a 1:1 ratio. […] Samples were analyzed on a TopCounter (Packard). The IC50 values were calculated using GraphPad Prism. See Supporting Information S7: SAR Screening Assay Methods (Binding Assays (Human and Rat)) for more information.
(§2) Binding Assays (Human and Rat). Brief descriptions of the methods used to determine binding affinities for SAR analysis are described below. Curves and IC50 values were plotted and calculated in GraphPad Prism using nonlinear regression (one site binding competition analysis), with pIC50 values […]
(§3) values were used to calculate the binding affinity ratios in order to express the selectivity of compounds for the AMY3R versus the CTR.
(§4) CTR Binding Assay. The binding assay was performed using scintillation proximity assay (SPA) beads (RPNQ0001) from PerkinElmer and cell membranes containing either the hCTR or rCTR. BHK […]
(§5) Membranes were prepared in the following way: the cells were rinsed with PBS and incubated with Versene for approximately 5 min before harvesting. The cells were flushed with PBS and the cell-suspension was centrifuged for 5 min at 1000 rpm. Cells were homogenized (Ultra Turrax) in a buffer […]
(§6) containing 20 mM Na-HEPES and 0.1 mM EDTA (pH 7.4, buffer 2). The resulting pellet was re-suspended in buffer 2 and protein concentration was measured (BCA protein assay, Pierce). The homogenate was kept cold during the whole procedure. The membranes were stored at –80 °C until […]
(§7) The binding assay was performed in a 384-well Optiplate (PerkinElmer) in a total volume of 40 μL.
(§8) Membranes were mixed with SPA beads in a 1:1 ratio. […]
(§9) mg/well. Test compounds were dissolved in DMSO and further diluted in assay buffer (50 mM HEPES, pH 7.4, 1 mM CaCl2, 5 mM MgCl2, 0.1% ovalbumin, and 0.02% Tween-20).
(§10) Calcitonin (NEX422 PerkinElmer) was dissolved in assay buffer and added to the Optiplate at a final […]
(§11) prior to centrifugation (1500 rpm, 10 min). Samples were analyzed on TopCounter (Packard).

rCTR = target: T3, rCTR (Rattus norvegicus, UniProt P32214); assay: scintillation proximity binding assay, rCTR membranes
T3 construct: expressed in transfected cells; host or cells: BHK tk-ts 13, transient (FuGENE 6)
T3 sequence (P32214 25-479 isoform P32214-2 limits assumed): T1 sequence (P32214 25-479 isoform P32214-2 limits assumed)
Method: as §1, §2, §3, §4, §5, §6, §7, §8, §9, §10, §11

[1] = Tables S12 and S14, read-out: rCTR pEC50 (converted)
[2] = transiently transfected BHK tk-ts 13 cells, FlashPlate, 30 min room temperature, 2% HSA, read-out: rCTR EC50
[3] = SPA binding assay, Tables S13 and S15

Row | EC50 (rat CTR; [1]) [nM] | EC50 (rat CTR; [2]) [nM] | hCTR pIC50 (hCTR; [3]) | rCTR pIC50 (rCTR; [3]) | IC50 (hCTR; SPA binding assay, Tables S13 and S15, read-out: hCTR pIC50 (converted)) [nM] | IC50 (hCTR; SPA, BHK cell membranes, 125I-Calcitonin 75 pM, 120 min 25 °C, read-out: hCTR IC50) [nM] | IC50 (rCTR; SPA binding assay, Tables S13 and S15, read-out: rCTR pIC50 (converted)) [nM] | IC50 (rCTR; SPA, BHK cell membranes, 125I-Calcitonin 75 pM, 120 min 25 °C, read-out: rCTR IC50) [nM] | SMILES
1 | 30.2 | 30.4 | 7.13 | 7.05 |  |  |  |  | CC[C@H](C)[C@H](NC(=O)[C@H](C)NC(=O)CNC(=O)[C@H](Cc1ccccc1)NC(=O)[C@H](CC(N)=O)NC(=O)[C@@H]1CCCN1C(=O)[C@H](CO)NC(=O)[C@H](CO)NC(=O)[C@H](Cc1c[nH]cn1)NC(=O)[C@H](CCCNC(=N)N)NC(=O)[C@H](CC(C)C)NC(=O)[C@H](Cc1ccccc1)NC(=O)[C@H](CC(N)=O)NC(=O)[C@H](C)NC(=O)[C@H](CC(C)C)NC(=O)[C@H](CCCNC(=N)N)NC(=O)[C@H](CCC(N)=O)NC(=O)[C@@H](NC(=O)[C@H](C)NC(=O)[C@@H]1CSSC[C@H](NC(=O)[C@H](CCCCN)NC(=O)CC[C@H](NC(=O)CCCCCCCCCCCCCCCCCCC(=O)O)C(=O)O)C(=O)N[C@@H](CC(N)=O)C(=O)N[C@@H]([C@@H](C)O)C(=O)N[C@@H](C)C(=O)N[C@@H]([C@@H](C)O)C(=O)N1)[C@@H](C)O)C(=O)N1CCC[C@H]1C(=O)N[C@@H](CO)C(=O)N[C@@H](CO)C(=O)N[C@H](C(=O)N[C@@H](CC(N)=O)C(=O)N[C@H](C(=O)NCC(=O)N[C@@H](CO)C(=O)N[C@@H](CCCCN)C(=O)N[C@H](C(=O)N[C@@H](Cc1ccc(O)cc1)C(N)=O)[C@@H](C)O)C(C)C)[C@@H](C)O [Peptide 13]
2 | 141 | 142 | 6.99 | 6.46 |  |  |  |  | CC[C@H](C)[C@H](NC(=O)[C@H](C)NC(=O)CNC(=O)[C@H](Cc1ccccc1)NC(=O)[C@H](CC(N)=O)NC(=O)[C@@H]1CCCN1C(=O)[C@H](CO)NC(=O)[C@H](CO)NC(=O)[C@H](Cc1c[nH]cn1)NC(=O)[C@H](CCCNC(=N)N)NC(=O)[C@H](CC(C)C)NC(=O)[C@H](Cc1ccccc1)NC(=O)[C@H](CC(N)=O)NC(=O)[C@H](C)NC(=O)[C@H](CC(C)C)NC(=O)[C@H](CCCNC(=N)N)NC(=O)[C@H](CCC(N)=O)NC(=O)[C@@H](NC(=O)[C@H](C)NC(=O)[C@@H]1CSSC[C@H](NC(=O)[C@H](CCCCN)NC(=O)COCCOCCNC(=O)COCCOCCNC(=O)CC[C@H](NC(=O)CCCCCCCCCCCCCCCCCCC(=O)O)C(=O)O)C(=O)N[C@@H](CC(N)=O)C(=O)N[C@@H]([C@@H](C)O)C(=O)N[C@@H](C)C(=O)N[C@@H]([C@@H](C)O)C(=O)N1)[C@@H](C)O)C(=O)N1CCC[C@H]1C(=O)N[C@@H](CO)C(=O)N[C@@H](CO)C(=O)N[C@H](C(=O)N[C@@H](CC(N)=O)C(=O)N[C@H](C(=O)NCC(=O)N[C@@H](CO)C(=O)N[C@@H](CC(N)=O)C(=O)N[C@H](C(=O)N[C@@H](Cc1ccc(O)cc1)C(N)=O)[C@@H](C)O)C(C)C)[C@@H](C)O [Peptide 10]
3 | 16.2 | 16.2 |  |  | 12 | 11.9 | 51.3 | 51.4 | CC[C@H](C)[C@H](NC(=O)[C@H](C)NC(=O)CNC(=O)[C@H](Cc1ccccc1)NC(=O)[C@H](CC(N)=O)NC(=O)[C@@H]1CCCN1C(=O)[C@H](CO)NC(=O)[C@H](CO)NC(=O)[C@H](Cc1c[nH]cn1)NC(=O)[C@H](CCCNC(=N)N)NC(=O)[C@H](CC(C)C)NC(=O)[C@H](Cc1ccccc1)NC(=O)[C@H](CC(N)=O)NC(=O)[C@H](C)NC(=O)[C@H](CC(C)C)NC(=O)[C@H](CCCNC(=N)N)NC(=O)[C@H](CCC(N)=O)NC(=O)[C@@H](NC(=O)[C@H](C)NC(=O)[C@@H]1CSSC[C@H](NC(=O)[C@H](CCCCN)NC(=O)CC[C@H](NC(=O)CCCCCCCCCCCCCCCCCCC(=O)O)C(=O)O)C(=O)N[C@@H](CC(N)=O)C(=O)N[C@@H]([C@@H](C)O)C(=O)N[C@@H](C)C(=O)N[C@@H]([C@@H](C)O)C(=O)N1)[C@@H](C)O)C(=O)N1CCC[C@H]1C(=O)N[C@@H](CO)C(=O)N[C@@H](CO)C(=O)N[C@H](C(=O)N1CCC[C@H]1C(=O)N[C@H](C(=O)NCC(=O)N[C@@H](CO)C(=O)N[C@@H](CCC(=O)O)C(=O)N[C@H](C(=O)N[C@@H](Cc1ccc(O)cc1)C(N)=O)[C@@H](C)O)C(C)C)[C@@H](C)O [Peptide 11] ({C20 diacid-γGlu}-KCNTATCATQRLANFLRHSSPNFGAIPSSTPVGSETY-NH2; disulfide 2-7)
4 |  |  | 7.81 | 7.77 |  |  |  |  | CC[C@H](C)[C@H](NC(=O)[C@H](C)NC(=O)CNC(=O)[C@H](Cc1ccccc1)NC(=O)[C@H](CC(N)=O)NC(=O)[C@@H]1CCCN1C(=O)[C@H](CO)NC(=O)[C@H](CO)NC(=O)[C@H](Cc1c[nH]cn1)NC(=O)[C@H](CCCNC(=N)N)NC(=O)[C@H](CC(C)C)NC(=O)[C@H](Cc1ccccc1)NC(=O)[C@H](CC(N)=O)NC(=O)[C@H](C)NC(=O)[C@H](CC(C)C)NC(=O)[C@H](CCCNC(=N)N)NC(=O)[C@H](CCC(N)=O)NC(=O)[C@@H](NC(=O)[C@H](C)NC(=O)[C@@H]1CSSC[C@H](NC(=O)[C@H](CCCNC(=N)N)NC(=O)CNC(=O)CC[C@H](NC(=O)CCCCCCCCCCCCCCCCCCC(=O)O)C(=O)O)C(=O)N[C@@H](CC(N)=O)C(=O)N[C@@H]([C@@H](C)O)C(=O)N[C@@H](C)C(=O)N[C@@H]([C@@H](C)O)C(=O)N1)[C@@H](C)O)C(=O)N1CCC[C@H]1C(=O)N[C@@H](CO)C(=O)N[C@@H](CO)C(=O)N[C@H](C(=O)N[C@@H](CC(N)=O)C(=O)N[C@H](C(=O)NCC(=O)N[C@@H](CO)C(=O)N[C@@H](Cc1c[nH]cn1)C(=O)N[C@H](C(=O)N[C@@H](Cc1ccc(O)cc1)C(N)=O)[C@@H](C)O)C(C)C)[C@@H](C)O [Peptide 19] ({C20 diacid-γGlu}-GRCNTATCATQRLANFLRHSSPNFGAIPSSTNVGSHTY-NH2; disulfide 3-8)
